The values below come from patent US11667632B2, “2-(1H-indazol-3-yl)-3H-imidazo[4,5-C]pyridines and their anti-inflammatory uses thereof” (BioSplice Therapeutics, Inc., priority 2015, dated 2023).

Each structure is given as a SMILES string. Marks after values point to notes of the source that are not given here.

One data set relates to IL-6. The experiment in a line: Inhibition of IL-6 in LPS-stimulated human monocyte cells (THP-1), HTRF. The class given is cell-based. The note with it: Homo sapiens; THP-1 cells, LPS 500 ng/mL, IL-6 by HTRF. The method, then: Human Monocyte Cell Culture: A human monocyte cell line (THP-1 cells; Catalog #TIB-202, ATCC, Manassas, Va.) was cultured in Roswell Park Memorial Institute (RPMI) 1640 Medium (Catalog #21870-100, Buffalo, N.Y.) with 1% L-glutamine, 1% HEPES, 1% sodium pyruvate, 2% sodium bicarbonate supplemented with 100 units/mL penicillin, 50 μg/mL streptomycin, 2-mercaptoethanol (0.05 mM) [basal medium] and 10% fetal bovine serum (Catalog #16140089, Life Technologies, Carlsbad, Calif.) at 37° C. and 5% CO2.
Compound Screening: THP-1 cells were cultured in basal media with 1% FBS for 24 hours before the start of the assay. Each compound of Formula (I) was dissolved in DMSO as a 10 mM stock and used to prepare compound source plates. Serial dilution (1:3, 10-point dose-response curves starting from 10 μM) and compound transfer was performed using the ECHO 550 (Labcyte, Sunnyvale, Calif.) into 384-well white low volume assay plates (Greiner Bio-One) with appropriate DMSO backfill for a final DMSO concentration of 0.1%. THP-1 cells were plated at 5000 cells/well in the 384-well plates and incubated at 37° C. for 2 h. 500 ng/mL of LPS was added after 2 hours and cells were incubated for another 22 hours at 37° C. Plates were spun in a centrifuge for 1 minute at 10,000 rpm and a mixture of anti-IL-6 XL665, and anti-IL-6 Cryptate diluted in reconstitution buffer (Cisbio Inc.) was added to each well. Following incubation for 3 hrs at room temperature, homogeneous time-resolved fluorescence (HTRF) was measured using the Envision (Perkin Elmer) at 665 nm and […]. The ratio of fluorescence at 665 nm to 620 nm was used as a readout for IL-6 quantification. All samples were processed in duplicate. Readings were normalized to DMSO treated cells and normalized activities were utilized for EC50 calculations using the dose-response log (inhibitor) vs. response -variable slope (four parameters) nonlinear regression feature available in GraphPad Prism 5.0 (or Dotmatics). For EC50 of >10 μM, the percent inhibition at 10 μM is provided.
Background: TR-FRET usually uses a lanthanide donor and a delayed reading to cut background.

Data set [1] is described as follows: Competitive slurry experiments between polymorph forms (thermodynamic stability). The class given is physicochemical. The note with it: EA at RT and 50° C.; slurried 3-5 days, XRD. The method, then: In order to find out the thermodynamic stability between the different forms, several competitive slurry experiments were carried out. Form 1, Form 2, Form 2*, Form 3, Form 4, Form 4*, Form 4**, Form 5, Form 7, Form 8, Form 9, Form 10, Form 11, Form 11*, and Form 13 (10 mg for each) was mixed and slurried in 2 mL of solvent at both RT and 50° C. The solids were slurried for 3-5 days and then analyzed by XRD.
In order to find out the thermodynamic stability between Form 13 and Form 9, several competitive slurry experiments were carried out. 15 mg of Form 1, Form 9 and Form 13 solid were mixed in 1 mL of toluene, IPAc, and n-butyl acetate, and slurried for 3 days at RT and 50° C.
The residual solid was analyzed by XRD.

Data set [2] can be described thus: Dynamic vapor sorption (DVS) scan. The class given is physicochemical. The note with it: for water absorption (DVS scan): at 90% RH. The text has this:
The purity of the Form 13 sample was 98.8%; the KF of an undried Form 13 sample was 35.7%.

Data set [3] in a line: Slurry experiments in various solvents (polymorph screen). The data set is classed as physicochemical. As for the experimental part:
Slurry experiments in various solvents were performed. Approximately 30-80 mg of the starting solid (a non-stoichiometric hydrate of Form 1 having between […] and about 20% by weight water) was slurried in 39 different solvents (pure and binary solvents; the ratio of organic solvent/water (V/V) was […]) at RT and 50° C. for 5 days. Three solvates, one non-stoichiometric hydrate, and eleven non-solvated forms were identified. […] XRD of both wet and dry samples were scanned (FIG. 12A (dry sample)).
The slurry experiments identified 3 solvated forms from wet samples (Solvates 1, 2, and 3); 2 non-stoichiometric hydrates of Form 1 (Forms 12 and 13); and 11 non-solvated forms (Forms 1-11). In some instances, similar XRD scans with minor differences were obtained. These were considered to be part of the same class (e.g., the same form). For example, XRD scans of Form 2 and Form 2* were similar and were considered to belong to the same class. The solvated forms were obtained from wet sample analysis; after drying, the sample indicated a different XRD.
Solvate 1 was obtained from acetone at RT, and after drying, a low crystallinity solid was generated. Solvate 2 was obtained from acetone (at RT) and acetone/water (at RT), and after drying, Form 4** was generated. Solvate 3 was obtained from EtOH/water at RT, and after drying, Form 2 was generated.

The mark [4] stands for this setting: slurry in Acetonitrile/water (5% water), RT.
The mark [5] stands for this setting: slurry in EA/water (5% water), RT.
Where [6] appears, read: slurry in Heptane/water (5% water), RT.
Setting [7] is: slurry in IPAc/water (5% water), RT.
The mark [8] stands for this setting: slurry in MA/water (5% water), 50° C.
The mark [9] stands for this setting: slurry in MIBK/water (5% water), RT.
The mark [10] stands for this setting: slurry in MeOH/water (5% water), RT.
The mark [11] stands for this setting: slurry in MtBE/water (5% water), RT.
Where [12] appears, read: slurry in n-Butyl acetate/water (5% water), RT.
The mark [13] stands for this setting: slurry in Acetone/water (5% water), RT.
Setting [14] is: slurry in EtOH/water (5% water), RT.

The term EC50 denotes the concentration giving half of the maximal effect. For the compound `CN1CCN(c2cncc3[nH]c(-c4n[nH]c5ccc(-c6cccnc6)cc45)nc23)CC1` [4*], the half-maximal effective concentration (EC50) with IL-6 was found to be 74 nM. In data set [1], the “thermodynamic stability between forms (competitive slurry)” value is “most stable”. As to `CCC(=O)Nc1cncc(-c2ccc3[nH]nc(-c4nc5c(-c6ccsc6)cncc5[nH]4)c3c2)c1` [Compound 289], it took 16 nM to reach a half-maximal effect in the data set with IL-6 (EC50). This counts as double-digit nanomolar.

`Nc1cncc(-c2ccc3[nH]nc(-c4nc5c(-c6ccsc6)cncc5[nH]4)c3c2)c1` [Compound 291] registered an EC50 in the data set on IL-6 of 11 nM. In the data set with IL-6, `Cc1ccncc1-c1ccc2[nH]nc(-c3nc4c(-c5ccsc5)cncc4[nH]3)c2c1` [Compound 293] came in with an EC50 of 58 nM.

`CN(C)c1cncc(-c2ccc3[nH]nc(-c4nc5c(-c6ccsc6)cncc5[nH]4)c3c2)c1` [Compound 295] gave a concentration giving a half-maximal response (EC50) in the data set with IL-6 of 47 nM. Same read-out and setting: next, `CN(C)Cc1cncc(-c2ccc3[nH]nc(-c4nc5c(-c6ccsc6)cncc5[nH]4)c3c2)c1` [Compound 301]: 127 nM; `c1cc(-c2cncc3[nH]c(-c4n[nH]c5ccc(-c6cncc(CN7CCCCC7)c6)cc45)nc23)cs1` [Compound 303]: 1010 nM. `CC(C)(C)CC(=O)Nc1cncc(-c2ccc3[nH]nc(-c4nc5c(-c6ccsc6)cncc5[nH]4)c3c2)c1` [Compound 304]: the response in the data set on IL-6 was half-maximal at 40 nM (EC50). In the data set on IL-6, `c1cc(-c2cncc3[nH]c(-c4n[nH]c5ccc(-c6cncc(CNCC7CCCC7)c6)cc45)nc23)cs1` [Compound 311] displayed an EC50 of 216 nM. `c1cncc(-c2ccc3[nH]nc(-c4nc5c(-c6ccoc6)cncc5[nH]4)c3c2)c1` [Compound 315]: the midpoint of the response in the data set on IL-6, the EC50, lay at 207 nM.

In the case of `CC(C)(C)C(=O)Nc1cncc(-c2ccc3[nH]nc(-c4nc5c(-c6ccoc6)cncc5[nH]4)c3c2)c1` [Compound 319], in the data set on IL-6, the response was half-maximal at 78 nM (EC50). The same measure, in the same setting: next, `O=C(Cc1ccccc1)Nc1cncc(-c2ccc3[nH]nc(-c4nc5c(-c6ccoc6)cncc5[nH]4)c3c2)c1` [Compound 321]: 697 nM; `CCCCC(=O)Nc1cncc(-c2ccc3[nH]nc(-c4nc5c(-c6ccoc6)cncc5[nH]4)c3c2)c1` [Compound 329]: 58 nM; `O=C(Nc1cncc(-c2ccc3[nH]nc(-c4nc5c(-c6ccoc6)cncc5[nH]4)c3c2)c1)C1CC1` [Compound 330]: 5870 nM.

Take `O=C(Nc1cncc(-c2ccc3[nH]nc(-c4nc5c(-c6ccoc6)cncc5[nH]4)c3c2)c1)C1CCCCC1` [Compound 333]: in the data set on IL-6, it took 103 nM to reach a half-maximal effect (EC50). Take `Fc1cccc(-c2cncc3[nH]c(-c4n[nH]c5ccc(-c6cncc(CN7CCC(F)(F)C7)c6)cc45)nc23)c1` [Compound 336]: in the data set with IL-6, the concentration for a half-maximal effect (EC50) stood at 71 nM.

Consider `FC1(F)CCN(Cc2cncc(-c3ccc4[nH]nc(-c5nc6c(-c7cccnc7)cncc6[nH]5)c4c3)c2)C1` [Compound 339], for which the EC50 with IL-6 worked out at 97 nM. The compound `FC1(F)CCN(Cc2cncc(-c3ccc4[nH]nc(-c5nc6c(N7CCCCC7)cncc6[nH]5)c4c3)c2)C1` [Compound 342] returned an EC50 in the data set on IL-6 of 109 nM. This EC50 and that of the compound before are within 1.5-fold of each other. In the data set with IL-6, `FC1(F)CCN(Cc2cncc(-c3ccc4[nH]nc(-c5nc6c(-c7ccsc7)cncc6[nH]5)c4c3)c2)C1` [Compound 346] had an EC50 of 37 nM. `CC(C)CC(=O)Nc1cncc(-c2ccc3[nH]nc(-c4nc5c(-c6cc(F)cc(NCCN(C)C)c6)cncc5[nH]4)c3c2)c1` [Compound 349]: it took 34 nM to reach a half-maximal effect in the data set with IL-6 (EC50). This EC50 and that of the compound before are within 1.5-fold of each other. In the data set on IL-6, `CC(C)CC(=O)Nc1cncc(-c2ccc3[nH]nc(-c4nc5c(-c6cc(F)cc(CNS(C)(=O)=O)c6)cncc5[nH]4)c3c2)c1` [Compound 373] came in with an EC50 of 34 nM. `CC(C)CC(=O)Nc1cncc(-c2ccc3[nH]nc(-c4nc5c(-c6cccs6)cncc5[nH]4)c3c2)c1` [Compound 397] returned an EC50 in the data set on IL-6 of 14 nM. `CC(C)CC(=O)Nc1cncc(-c2ccc3[nH]nc(-c4nc5c(-c6cccc(F)c6)cncc5[nH]4)c3c2)c1` [Form 1]: in data set [2], the “water absorption (DVS scan)” value turned out to be 17%. With `CC(C)CC(=O)Nc1cncc(-c2ccc3[nH]nc(-c4nc5c(-c6cccc(F)c6)cncc5[nH]4)c3c2)c1` [Form 9], in data set [2], the “change of form before and after the DVS scan” value is “did not change its form”; the “water absorption (DVS scan)” value was 0.8%. Take `CC(C)CC(=O)Nc1cncc(-c2ccc3[nH]nc(-c4nc5c(-c6cccc(F)c6)cncc5[nH]4)c3c2)c1` [Form 12]: the “Form, Dry” value in data set [3] (setting [4]) is reported as “Form 1”; in data set [3] (setting [5]) it was “Form 1”; in data set [3] (setting [6]), “Form 12”; in data set [3] (setting [7]), “Form 1”; in data set [3] (setting [8]), “Form 4”; in data set [3] (setting [9]), “Form 1”. Further, the “Form, Dry” value in data set [3] (setting [10]) was “Form 1”; in data set [3] (setting [11]) it was “Form 1”; in data set [3] (setting [12]) it was “Form 12”. The “Form, Wet” value is reported as “Form 12” in data set [3] (setting [4]); “Form 12” in data set [3] (setting [5]); “Form 13” in data set [3] (setting [6]); “Form 12” in data set [3] (setting [7]); “Form 12” in data set [3] (setting [8]); “Form 12” in data set [3] (setting [9]). Further, the “Form, Wet” value in data set [3] (setting [10]) is “Form 12”; in data set [3] (setting [11]), “Form 12”; in data set [3] (setting [12]), “Form 13”. For the compound `CC(C)CC(=O)Nc1cncc(-c2ccc3[nH]nc(-c4nc5c(-c6cccc(F)c6)cncc5[nH]4)c3c2)c1` [Solvate 1], in data set [3] (slurry in Acetone, RT), the “Form, Dry” value is “Low” and the “Form, Wet” value is given as “Solvate 1”. `CC(C)CC(=O)Nc1cncc(-c2ccc3[nH]nc(-c4nc5c(-c6cccc(F)c6)cncc5[nH]4)c3c2)c1` [Solvate 2]: in data set [3] (slurry in Acetone, 50° C.), the “Form, Dry” value was “Form 4**” and the “Form, Wet” value was “Solvate 2”. Also, in data set [3] (setting [13]), the “Form, Dry” value is “Form 4**” and the “Form, Wet” value is “Solvate 2”. Regarding `CC(C)CC(=O)Nc1cncc(-c2ccc3[nH]nc(-c4nc5c(-c6cccc(F)c6)cncc5[nH]4)c3c2)c1` [Solvate 3], in data set [3] (setting [14]), the “Form, Dry” value is given as “Form 2” and the “Form, Wet” value is recorded as “Solvate 3”.
